# Experimental data reported in the supplement of paper PMC11061612.
# Assays:
# Test in all cases: Bliss excess, mean over the matrix (fraction); higher = more synergy
# [1] = test system: MFE-296 (Endometrial Carcinoma)
# How it was run: (§1)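 Cell lines grown in DMEM/F12 or RPMI with 10% FBS were plated in 1536-well plates and held 24 hours at 37°C, 5% CO2 before 72 hours of exposure to two-drug dose matrices, with DMSO typically at 0.2%. CellTiter-Glo 2.0 luminescence gave viability, which was converted to inhibition. Vehicle wells were set to 0 and blank wells to 1. Combination Emax is the second-highest inhibition in the matrix, and Bliss excess is the observed combination effect minus the expected EA + EB − EA·EB, where EA and EB are the single-agent effects.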
# [2] = test system: LS-180 (Colorectal Carcinoma)
# How it was run: as §1
# [3] = test system: SK-ES-1 (Ewing's Sarcoma)
# How it was run: as §1
# ES4 (Ewing's Sarcoma) = test system: ES4 (Ewing's Sarcoma)
# How it was run: as §1
# [4] = test system: TCCSUP (Bladder Carcinoma)
# How it was run: as §1
# [5] = test system: NCI-H2085 (Non-Small Cell Lung Carcinoma)
# How it was run: as §1
# [6] = test system: HuP-T4 (Pancreatic Carcinoma)
# How it was run: as §1
# [7] = test system: MDA-MB-361 (Breast Carcinoma)
# How it was run: as §1
# [8] = test system: Ramos-2G6-4C10 (Burkitt's Lymphoma)
# How it was run: as §1
# [9] = test system: UM-UC-3 (Bladder Carcinoma)
# How it was run: as §1
# [10] = test system: KP-1N (Pancreatic Carcinoma)
# How it was run: as §1
# [11] = test system: HCC1806 (Breast Carcinoma)
# How it was run: as §1
# [12] = test system: B-CPAP (Thyroid Gland Carcinoma)
# How it was run: as §1
# [13] = test system: CaR-1 (Colorectal Carcinoma)
# How it was run: as §1
# [14] = test system: Calu-3 (Lung Adenocarcinoma)
# How it was run: as §1
# [15] = test system: HT-1376 (Bladder Carcinoma)
# How it was run: as §1
# NOS-1 (Osteosarcoma) = test system: NOS-1 (Osteosarcoma)
# How it was run: as §1
# [16] = test system: LNCaP-Clone-FGC (Prostate Carcinoma)
# How it was run: as §1
# NB10 (Neuroblastoma) = test system: NB10 (Neuroblastoma)
# How it was run: as §1
# [17] = test system: DoTc2-4510 (Cervical Carcinoma)
# How it was run: as §1
SMILES,Bliss excess [1],Bliss excess [2],Bliss excess [3],Bliss excess (ES4 (Ewing's Sarcoma)),Bliss excess [4],Bliss excess [5],Bliss excess [6],Bliss excess [7],Bliss excess [8],Bliss excess [9],Bliss excess [10],Bliss excess [11],Bliss excess [12],Bliss excess [13],Bliss excess [14],Bliss excess [15],Bliss excess (NOS-1 (Osteosarcoma)),Bliss excess [16],Bliss excess (NB10 (Neuroblastoma)),Bliss excess [17]
"CCN(CCO)CCCOc1ccc2c(Nc3cc(CC(=O)Nc4cccc(F)c4)[nH]n3)ncnc2c1 [AZD2811] + C=CCn1c(=O)c2cnc(Nc3ccc(N4CCN(C)CC4)cc3)nc2n1-c1cccc(C(C)(C)O)n1 [AZD1775] (first compound max 1 µM, partner max 1 µM)",-0.0245,0.0269,0.028,-0.0024,-0.0204,0.0061,0.0274,-0.0044,0.0096,-0.0171,0.0124,0.0012,-0.0363,-0.0165,-0.0306,-0.0947,0.0045,0.0001,-0.0399,-0.0323
"CCN(CCO)CCCOc1ccc2c(Nc3cc(CC(=O)Nc4cccc(F)c4)[nH]n3)ncnc2c1 [AZD2811] + C[C@@H]1COCCN1C2=NC(=NC(=C2)C3(CC3)[S@](=N)(=O)C)C4=C5C=CNC5=NC=C4 [AZD6738] (first compound max 1 µM, 7x7, partner max 10 µM)",-0.0728,-0.0723,0.0382,-0.0042,0.0006,-0.0913,0.0305,-0.0816,-0.0008,0.0276,-0.0189,-0.014,-0.0276,-0.0528,-0.0169,-0.0566,0.0036,-0.0447,-0.056,-0.0481
"CCN(CCO)CCCOc1ccc2c(Nc3cc(CC(=O)Nc4cccc(F)c4)[nH]n3)ncnc2c1 [AZD2811] + O=C(c1cc(Cc2n[nH]c(=O)c3ccccc23)ccc1F)N1CCN(C(=O)C2CC2)CC1 [Olaparib] (first compound max 1 µM, 7x7, partner max 10 µM)",-0.011,0.0636,-0.0075,-0.0138,0.0238,-0.0109,-0.0055,-0.0133,0.0573,0.0332,-0.0175,0.0298,0.0104,0.0213,0.0047,-0.0499,0.0085,-0.0009,-0.0445,0.0035
"CN(CCO)CC[C@H](CSc1ccccc1)Nc1ccc(S(=O)(=O)NC(=O)c2ccc(N3CCC([C@@H](O)c4ccccc4-c4ccc(Cl)cc4)CC3)cc2)cc1S(=O)(=O)C(F)(F)F [AZD4320] + C1CN(CCC1(C(=O)N[C@@H](CCO)C2=CC=C(C=C2)Cl)N)C3=NC=NC4=C3C=CN4 [Capivasertib] (first compound max 1 µM, 7x7, partner max 3 µM)",-0.0255,-0.0389,0.0827,-0.0333,-0.0568,-0.0401,-0.0353,-0.0442,0.038,-0.0228,-0.0389,-0.0078,-0.0377,-0.0668,-0.0149,-0.0959,-0.0386,-0.0239,-0.0288,0.0501
"CN(CCO)CC[C@H](CSc1ccccc1)Nc1ccc(S(=O)(=O)NC(=O)c2ccc(N3CCC([C@@H](O)c4ccccc4-c4ccc(Cl)cc4)CC3)cc2)cc1S(=O)(=O)C(F)(F)F [AZD4320] + C=CCn1c(=O)c2cnc(Nc3ccc(N4CCN(C)CC4)cc3)nc2n1-c1cccc(C(C)(C)O)n1 [AZD1775] (first compound max 1 µM, partner max 1 µM)",-0.0075,0.0046,0.093,0.12,0.0373,-0.0212,-0.0368,-0.034,0.0808,-0.0064,-0.0325,0.0043,0.0808,-0.0375,0.014,-0.0588,0.0894,-0.0222,0.0304,0.0205
"CN(CCO)CC[C@H](CSc1ccccc1)Nc1ccc(S(=O)(=O)NC(=O)c2ccc(N3CCC([C@@H](O)c4ccccc4-c4ccc(Cl)cc4)CC3)cc2)cc1S(=O)(=O)C(F)(F)F [AZD4320] + CCN(CCO)CCCOc1ccc2c(Nc3cc(CC(=O)Nc4cccc(F)c4)[nH]n3)ncnc2c1 [AZD2811] (first compound max 1 µM, 7x7, partner max 1 µM)",-0.0109,-0.0044,0.0156,0.0157,-0.0194,-0.0145,-0.0427,0.122,0.18,0.0325,-0.0317,-0.0127,0.0126,-0.0753,-0.0142,0.026,0.0616,-0.0105,-0.0097,0.114
"CN(CCO)CC[C@H](CSc1ccccc1)Nc1ccc(S(=O)(=O)NC(=O)c2ccc(N3CCC([C@@H](O)c4ccccc4-c4ccc(Cl)cc4)CC3)cc2)cc1S(=O)(=O)C(F)(F)F [AZD4320] + CN(C)CCCOc1ccc(-c2ccc3ncc4c(c3c2)n(C2CCOCC2)c(=O)n4C)cn1 [AZD0156] (first compound max 1 µM, 7x7, partner max 1 µM)",-0.0346,-0.0209,0.047,0.0223,-0.0227,-0.0242,-0.0268,-0.0589,0.026,-0.0219,-0.0481,0.0142,-0.0065,-0.0727,-0.0153,-0.03,0.0203,-0.089,-0.0056,-0.12
"CN(CCO)CC[C@H](CSc1ccccc1)Nc1ccc(S(=O)(=O)NC(=O)c2ccc(N3CCC([C@@H](O)c4ccccc4-c4ccc(Cl)cc4)CC3)cc2)cc1S(=O)(=O)C(F)(F)F [AZD4320] + C[C@@H]1COCCN1C2=NC(=NC(=C2)C3(CC3)[S@](=N)(=O)C)C4=C5C=CNC5=NC=C4 [AZD6738] (first compound max 1 µM, 7x7, partner max 10 µM)",0.0178,-0.0306,0.0339,0.0351,0.009,-0.0912,0.0013,-0.0402,-0.0342,0.0368,-0.0135,0.0208,-0.0422,0.0178,-0.006,0.0078,0.038,-0.0328,-0.0515,-0.0202
"CN(CCO)CC[C@H](CSc1ccccc1)Nc1ccc(S(=O)(=O)NC(=O)c2ccc(N3CCC([C@@H](O)c4ccccc4-c4ccc(Cl)cc4)CC3)cc2)cc1S(=O)(=O)C(F)(F)F [AZD4320] + C[C@@H](Nc1cc(F)cc(F)c1)c1cc(C(=O)N(C)C)cc2c(=O)cc(N3CCOCC3)oc12 [AZD8186] (first compound max 1 µM, 7x7, partner max 3 µM)",0.0075,-0.0535,0.0521,-0.0507,-0.0348,-0.0231,0.0664,0.0094,0.175,0.0327,0.0059,0.0033,0.0064,-0.0193,0.002,-0.0224,-0.0096,-0.0005,-0.0357,0.0252
"CN(CCO)CC[C@H](CSc1ccccc1)Nc1ccc(S(=O)(=O)NC(=O)c2ccc(N3CCC([C@@H](O)c4ccccc4-c4ccc(Cl)cc4)CC3)cc2)cc1S(=O)(=O)C(F)(F)F [AZD4320] + Cc1cc2ncnn2cc1Nc1ncc2c(n1)n(C1CCOCC1)c(=O)n2C [AZD7648] (first compound max 1 µM, 7x7, partner max 10 µM)",-0.0185,-0.0458,0.0809,0.0147,-0.0325,-0.0399,-0.0439,0.0056,0.0379,-0.0234,-0.0588,-0.058,-0.0275,-0.04,-0.0547,-0.17,0.0375,-0.0622,-0.0281,-0.0144
"CN(CCO)CC[C@H](CSc1ccccc1)Nc1ccc(S(=O)(=O)NC(=O)c2ccc(N3CCC([C@@H](O)c4ccccc4-c4ccc(Cl)cc4)CC3)cc2)cc1S(=O)(=O)C(F)(F)F [AZD4320] + Cn1cnc2c(F)c(Nc3ccc(Br)cc3Cl)c(C(=O)NOCCO)cc21 [Selumetinib] (first compound max 1 µM, 7x7, partner max 3 µM)",-0.0178,0.0159,-0.0095,0.0074,0.0157,0.032,0.0393,0.0835,0.138,-0.0058,-0.0277,0.0605,0.0228,-0.0573,-0.0028,0.0297,0.0796,0.0009,0,-0.021
"COc1nnc2ccc(N3CCC(c4ccc(OCCN5CCN(C)C(=O)[C@H]5C)cc4)CC3)nn12 [AZD5153] + C=CCn1c(=O)c2cnc(Nc3ccc(N4CCN(C)CC4)cc3)nc2n1-c1cccc(C(C)(C)O)n1 [AZD1775] (first compound max 1 µM, partner max 1 µM)",-0.0541,-0.049,-0.0279,-0.0223,-0.0497,-0.0223,-0.0435,-0.136,-0.0657,-0.0413,0.0464,-0.0704,-0.0803,-0.0267,-0.0678,0.0053,-0.0371,-0.0733,-0.0727,-0.018
"COc1nnc2ccc(N3CCC(c4ccc(OCCN5CCN(C)C(=O)[C@H]5C)cc4)CC3)nn12 [AZD5153] + CC1(C)CCC(CN2CCN(c3ccc(C(=O)NS(=O)(=O)c4ccc(NCC5CCOCC5)c([N+](=O)[O-])c4)c(Oc4cnc5[nH]ccc5c4)c3)CC2)=C(c2ccc(Cl)cc2)C1 [Venetoclax] (first compound max 1 µM, 7x7, partner max 1 µM)",-0.0824,-0.0614,-0.0092,-0.111,-0.0768,-0.0655,-0.0457,-0.0257,-0.0041,-0.043,-0.0714,-0.0513,-0.0858,-0.0643,-0.0258,-0.0305,-0.0078,-0.0468,-0.0566,-0.0405
